Results taken from the supplement of paper PMC4862054.

Legend:
Conditions in all cases: 72 h
BT-549 [1] = system: BT-549
In short: (§1)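 For viability and cell death testing, 384-well plates carried compound at 5 concentrations in 10-fold steps over a compound-specific 10,000-fold range, and breast cancer cell lines were seeded in 20 µl suspension. After 72 h incubation, cell death was read by CellTox Green fluorescence (485/520 nm) before viability was read by CellTiter-Glo luminescence. EC50 was fitted from the dose-response curves and censored at the top concentration. Normalisation on each plate was to 0.1 % DMSO and a positive kill control.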

CAL-51 [2] = system: CAL-51
In short: as §1

CAL-85-1 [3] = system: CAL-85-1
In short: as §1

MDA-MB-468 = system: MDA-MB-468
In short: as §1

CAL-148 [4] = system: CAL-148
In short: (§2)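 Rows with a drug sensitivity score of zero were dropped, and EC50 was taken from the fitted percent-inhibition dose-response curve, censored at the highest concentration. Data were normalised on each plate to vehicle and a positive kill control and checked by Z'-factor. The assay seeded breast cancer cell lines in 20 µl onto 384-well plates pre-loaded with compound in 5 µl medium for 72 h, then added 2.5 µl CellTiter-Blue for 2 h at 37 °C and read fluorescence at 560/590 nm.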

CAL-51 [5] = system: CAL-51; remark: listed apart in the source
In short: as §2

CAL-85-1 [6] = system: CAL-85-1; remark: listed apart in the source
In short: as §2

HDQ-P1 [7] = system: HDQ-P1
In short: as §2

MDA-MB-453 [8] = system: MDA-MB-453
In short: as §2

BT-549 [9] = system: BT-549; remark: listed apart in the source
In short: as §2

Hs578T [10] = system: Hs578T
In short: as §2

MDA-MB-231 [11] = system: MDA-MB-231
In short: as §2

MDA-MB-436 [12] = system: MDA-MB-436
In short: as §2

SK-BR-3 [13] = system: SK-BR-3
In short: as §2

BT-474 = system: BT-474
In short: as §1

CAL-120 = system: CAL-120
In short: as §1

CAL-148 [14] = system: CAL-148; remark: listed apart in the source
In short: as §1

DU-4475 [15] = system: DU-4475
In short: as §1

HCC1143 = system: HCC1143
In short: as §1

HCC1599 = system: HCC1599
In short: as §1

HCC1937 = system: HCC1937
In short: as §1

HDQ-P1 [16] = system: HDQ-P1; remark: listed apart in the source
In short: as §1

Hs578T [17] = system: Hs578T; remark: listed apart in the source
In short: as §1

MCF-10A = system: MCF-10A
In short: as §1

MDA-MB-231 [18] = system: MDA-MB-231; remark: listed apart in the source
In short: as §1

MDA-MB-436 [19] = system: MDA-MB-436; remark: listed apart in the source
In short: as §1

MDA-MB-453 [20] = system: MDA-MB-453; remark: listed apart in the source
In short: as §1

MFM-223 = system: MFM-223
In short: as §1

SK-BR-3 [21] = system: SK-BR-3; remark: listed apart in the source
In short: as §1

DU-4475 [22] = system: DU-4475; remark: listed apart in the source
In short: as §2

SMILES | EC50, CellTiter-Glo (BT-549 [1]) [nM] | EC50, CellTiter-Glo (CAL-51 [2]) [nM] | EC50, CellTiter-Glo (CAL-85-1 [3]) [nM] | EC50, CellTiter-Glo (MDA-MB-468) [nM] | EC50, CellTiter-Blue viability (CAL-148 [4]) [nM] | EC50, CellTiter-Blue viability (CAL-51 [5]) [nM] | EC50, CellTiter-Blue viability (CAL-85-1 [6]) [nM] | EC50, CellTiter-Blue viability (HDQ-P1 [7]) [nM] | EC50, CellTiter-Blue viability (MDA-MB-453 [8]) [nM] | EC50, CellTiter-Blue viability (BT-549 [9]) [nM] | EC50, CellTiter-Blue viability (Hs578T [10]) [nM] | EC50, CellTiter-Blue viability (MDA-MB-231 [11]) [nM] | EC50, CellTiter-Blue viability (MDA-MB-436 [12]) [nM] | EC50, CellTiter-Blue viability (SK-BR-3 [13]) [nM] | EC50, CellTiter-Glo (BT-474) [nM] | EC50, CellTiter-Glo (CAL-120) [nM] | EC50, CellTiter-Glo (CAL-148 [14]) [nM] | EC50, CellTiter-Glo (DU-4475 [15]) [nM] | EC50, CellTiter-Glo (HCC1143) [nM] | EC50, CellTiter-Glo (HCC1599) [nM] | EC50, CellTiter-Glo (HCC1937) [nM] | EC50, CellTiter-Glo (HDQ-P1 [16]) [nM] | EC50, CellTiter-Glo (Hs578T [17]) [nM] | EC50, CellTiter-Glo (MCF-10A) [nM] | EC50, CellTiter-Glo (MDA-MB-231 [18]) [nM] | EC50, CellTiter-Glo (MDA-MB-436 [19]) [nM] | EC50, CellTiter-Glo (MDA-MB-453 [20]) [nM] | EC50, CellTiter-Glo (MFM-223) [nM] | EC50, CellTiter-Glo (SK-BR-3 [21]) [nM] | EC50, CellTiter-Blue viability (DU-4475 [22]) [nM]
C[C@@H]1C=C2C(=O)O[C@@H]3CC[C@H](C1)[C@]23O [Galiellalactone] | 17700 | 2320 | 10500 | 7120 | 16100 | 48900 | 6900 | 39400 | 7210 | 5580 | 44600 | 7150 | 14700 | 12600 | – | – | – | – | – | – | – | – | – | – | – | – | – | – | – | –
COC1=C2C[C@@H](C)C[C@H](OC)[C@H](O)[C@@H](C)/C=C(\C)[C@H](OC(N)=O)[C@@H](OC)/C=C\C=C(/C)C(=O)NC(=CC1=O)C2=O [Geldanamycin] | 3180 | 3480 | 2680 | 4130 | 223 | 535 | 270 | 81.4 | 96.5 | 46.8 | 90.5 | 63.1 | 40.9 | 46.8 | 4080 | 6700 | 7190 | 2470 | 6310 | 5810 | 2130 | 3910 | 5350 | 4380 | 3390 | 1050 | 3390 | 666 | 1820 | 137
CS(=O)(=O)CCNCc1ccc(-c2ccc3ncnc(Nc4ccc(OCc5cccc(F)c5)c(Cl)c4)c3c2)o1 [Lapatinib] | – | – | 304 | – | – | – | 3740 | – | 75.1 | 4320 | 3790 | 5820 | 5900 | 40.7 | – | – | – | – | – | – | – | 359 | – | 504 | – | – | – | – | 49.8 | –
Cn1cnc2c(F)c(Nc3ccc(Br)cc3F)c(C(=O)NOCCO)cc21 [MEK-162] | – | – | – | – | – | – | – | – | – | – | – | 364 | – | – | 113 | > 1000 | – | 78.7 | – | – | – | 13.5 | – | 11.8 | – | – | – | – | – | 38.9
CCOc1cc2ncc(C#N)c(Nc3ccc(OCc4ccccn4)c(Cl)c3)c2cc1NC(=O)/C=C/CN(C)C [Neratinib] | – | 926 | 91.2 | 539 | – | – | – | – | 12.5 | – | – | – | – | – | – | 412 | 95.2 | – | – | – | – | 309 | – | 57.8 | – | – | 7.56 | 692 | 2.49 | –
COc1ccc(C2=N[C@@H](c3ccc(Cl)cc3)[C@@H](c3ccc(Cl)cc3)N2C(=O)N2CCNC(=O)C2)c(OC(C)C)c1 [Nutlin-3] | – | 17.6 | – | – | – | 2750 | – | – | – | – | – | – | – | – | – | – | 7030 | 2950 | – | – | – | – | – | – | – | – | 7190 | – | – | 6310
COC1=CC(c2cc3ccccc3[nH]2)=N/C1=C\c1[nH]c(C)cc1C [Obatoclax] | 3600 | 3920 | 126 | 664 | 3150 | 2060 | 982 | 95.6 | 632 | 192 | 162 | 73.2 | 99.1 | 38.1 | 128 | – | – | – | – | – | 153 | – | – | – | 131 | – | 2620 | – | > 10000 | 6650
COC(=O)C[C@](O)(CCCC(C)(C)O)C(=O)O[C@@H]1C(OC)=C[C@]23CCCN2CCc2cc4c(cc2[C@H]13)OCO4 [Omacetaxine] | 50.3 | 37.5 | 36.2 | 45.5 | 13.7 | 21.5 | 17.4 | 13.8 | 24.7 | 32.1 | 44 | 36.3 | 26.6 | 34.3 | 299 | 93.8 | 56.8 | 14.4 | 80.6 | 41.1 | 64.3 | 39.1 | 68.3 | 116 | 138 | 22.6 | 73.9 | 102 | 86.7 | 5.48
CC(=O)O[C@H]1C(=O)[C@@]2(C)[C@H]([C@H](OC(=O)c3ccccc3)[C@]3(O)C[C@H](OC(=O)[C@H](O)[C@@H](NC(=O)c4ccccc4)c4ccccc4)C(C)=C1C3(C)C)[C@]1(OC(C)=O)CO[C@@H]1C[C@@H]2O [Paclitaxel] | 4.79 | 7.96 | 4.73 | 3.47 | 6.75 | 12.2 | 7.28 | 1.26 | 4.03 | 2.7 | 5.2 | 2.29 | 4.49 | 2.93 | 7.94 | 6.96 | 1.96 | 44 | 3.37 | 16.9 | 2.62 | 2.81 | 6.32 | 3.65 | 10.7 | 4.07 | 22.6 | 5.86 | 0.72 | 18.6
O=C(c1ccc(OCCN2CCCCC2)cc1)c1c(-c2ccc(O)cc2)sc2cc(O)ccc12 [Raloxifene] | – | – | 3610 | 4640 | – | – | – | – | 9230 | – | – | – | – | – | 8260 | – | – | – | – | 9620 | – | – | – | – | – | – | – | 2260 | – | –
Cn1c(=O)c(F)c(Nc2ccc(I)cc2F)c2c(=O)n(C[C@@H](O)CO)cnc21 [TAK-733] | – | 3.04 | 125 | 29.8 | – | 102 | 68.5 | 161 | 249 | – | 114 | 4.92 | – | – | 33.5 | 66.6 | – | 7.03 | – | – | 341 | 6.97 | – | 3.49 | 130 | 452 | – | 371 | – | 3.59
CCS(=O)(=O)c1cccc(-c2cc(C(=O)NC3CCN(C)CC3)c(C)c3[nH]c4ncc(C)cc4c23)c1 [TAK-901] | 155 | – | – | 26.2 | – | 179 | 344 | 260 | 12.8 | 126 | 125 | 110 | 214 | – | 152 | 131 | – | – | 130 | – | – | 642 | 445 | 151 | 144 | 299 | – | 123 | – | 806
Cc1cc(C(C)Nc2ccccc2)c2nc(N3CCOCC3)cc(=O)n2c1 (stereo not given) [TGX-221] | 947 | 22.8 | – | 3560 | – | – | – | – | – | – | – | – | – | – | 709 | > 10000 | – | – | – | – | – | – | – | – | – | – | – | – | – | –
COc1cc(Nc2ncc(F)c(Nc3ccc4c(n3)NC(=O)C(C)(C)O4)n2)cc(OC)c1OC [Tamatinib] | 650 | 2310 | – | – | – | – | – | – | – | – | – | – | – | – | – | – | – | – | – | – | – | – | – | – | – | – | – | – | – | –
FC(F)c1nc2ccccc2n1-c1nc(N2CCOCC2)nc(N2CCOCC2)n1 [ZSTK474] | 396 | 1010 | 779 | 677 | – | – | – | – | – | – | – | – | – | – | 3040 | 958 | 1260 | 6590 | 1130 | 538 | 2730 | 436 | 493 | 540 | 720 | 498 | 492 | 737 | 206 | –
